# Data: patent publication US20070148643A1, “Treatment of Huntington's Disease with EPA” (priority 2002, published 2007)
# What was measured:
# [1] = system: severely disabled patients in the final stages of Huntington's disease; details: 2 g/day, 6 months, cited from earlier work
# [2] = system: patients with genetically-confirmed HD; assay: one year randomised placebo-controlled trial of ethyl-EPA in HD, total motor score (TMS) subscale of the UHDRS; type: in vivo, human
# Description: 135 patients with genetically-confirmed HD were entered into a one year trial. They were randomised to receive either 2 g/day of ethyl-EPA or an identical-appearing placebo. They were evaluated at baseline, six months and 12 months on the total motor score (TMS) subscale of the Unified Huntington's Disease Rating Scale (UHDRS). The UHDRS is the standard rating scale which is used to monitor the development of HD. The TMS is the component of the UHDRS which changes most reliably, rapidly and consistently and is therefore appropriate for monitoring the outcome of clinical trials. At the end of one year, change in TMS was compared in the placebo group and the ethyl-EPA group. […] However, when patients were stratified on the basis of their CAG repeat numbers, a dramatic benefit of ethyl-EPA was uncovered. […] Placebo patients with CAG repeat numbers 45 and below deteriorated by an average of 5.3%. In contrast, the same group of patients on ethyl-EPA improved over the year by 19.3%. This difference was highly statistically significant on either analysis of covariance or on chi square testing. […] Previously the best that had been hoped for in neurodegenerative diseases like HD was a slowing of deterioration rather than any actual improvement. […] Putting it another way, the treated patients had gained at least four and a half years of useful life.
structure (smiles),measurement,setting,value
"CC/C=C\C/C=C\C/C=C\C/C=C\C/C=C\CCCC(=O)OCC [ethyl-EPA, ethyl ester of eicosapentaenoate]","clinical course (abnormal movements, emotional lability and irritability, memory and cognitive function)","[1]; three patients on ethyl-EPA, four on placebo",all three patients who improved were found to be taking ethyl-EPA
same,lateral ventricle size by MRI,"[1]; two patients on ethyl-EPA, beginning versus end of study",reduction in lateral ventricle size
same,proportion of patients improving on TMS,"[2]; 2 g/day, CAG repeats 45 and below",great majority of patients on ethyl-EPA actually improved
same,"improvement in TMS over the year, patients with CAG repeat numbers 45 and below","[2]; 2 g/day, CAG repeats 45 and below, placebo deteriorated by 5.3%",19.3%
same,"benefit versus placebo, patients with CAG repeat numbers of 45 or below","[2]; 2 g/day, CAG repeats 45 or below (below 45)",large benefit
same,"change in TMS versus placebo, patients with CAG repeat number of 46 or more","[2]; 2 g/day, CAG repeats 46 or more",did not show any difference at all between placebo and ethyl-EPA
same,"change in TMS versus placebo, all patients","[2]; 2 g/day, all patients (not stratified)",better outcome on ethyl-EPA than on placebo but this was not statistically significant
same,improvement relative to the change in patients on placebo over one year,[2]; CAG repeats 45 and below,more than three and a half times more
same,separation of EPA and placebo patients in years of disease progression after one year,[2]; CAG repeats 45 and below,more than four and a half years
